Laboratory results published in ChEMBL document CHEMBL6115026, “Synthesis and Biological Evaluation of Peripheral 5HT2B Antagonists for Liver Fibrosis” (J Med Chem, 2025).
The source made the active and inactive calls. No cut-off for these calls is given here.

Experiments:
[1] = target: T1, 5-hydroxytryptamine receptor 2B (Homo sapiens, UniProt P41595); assay: Antagonist activity at 5HT2B (unknown origin) expressed in FRT cells co-expressing ANO1 and YFP assessed as inhibition of 5HT-induced increase in iodide influx at 1 uM preincubated with compound for 10 mins followed by 5-HT addition and measured after 8 sec by YFP fluorescence quenching analysis relative to control; format: cell-based; conditions: time 608.0 sec
T1 sequence (P41595 whole entry): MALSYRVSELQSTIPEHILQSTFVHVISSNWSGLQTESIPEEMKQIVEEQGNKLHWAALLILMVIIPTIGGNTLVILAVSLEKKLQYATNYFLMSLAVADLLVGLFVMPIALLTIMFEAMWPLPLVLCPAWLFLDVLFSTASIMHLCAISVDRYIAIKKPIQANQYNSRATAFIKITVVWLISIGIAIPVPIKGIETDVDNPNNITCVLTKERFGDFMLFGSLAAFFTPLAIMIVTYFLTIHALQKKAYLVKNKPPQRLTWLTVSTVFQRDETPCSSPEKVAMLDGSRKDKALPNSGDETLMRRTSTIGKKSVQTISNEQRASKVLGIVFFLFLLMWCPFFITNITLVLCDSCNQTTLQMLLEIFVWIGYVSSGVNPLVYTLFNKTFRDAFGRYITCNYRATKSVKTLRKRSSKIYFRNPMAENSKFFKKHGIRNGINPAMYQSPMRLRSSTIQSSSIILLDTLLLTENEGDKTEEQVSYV

[2] = target: T1, 5-hydroxytryptamine receptor 2B; assay: Binding affinity to 5-HT2B (unknown origin)
[3] = target: T1, 5-hydroxytryptamine receptor 2B; assay: Antagonist activity at 5HT2B (unknown origin) expressed in FRT cells co-expressing ANO1 and YFP assessed as inhibition of 5HT-induced increase in iodide influx preincubated with compound for 10 mins followed by 5-HT addition and measured after 8 sec by YFP fluorescence quenching analysis; format: cell-based
[4] = Cytotoxicity against mouse NIH3T3 cells assessed as reduction in cell viability incubated for 24 hrs by EZ-CYTOX cell viability assay; format: toxicity, cell-based
[5] = Metabolic stability in human liver microsomes assessed as parent compound remaining measured after 30 mins in presence of NADPH by LC-MS/MS analysis; format: ADME, Microsome; conditions: read-out: Stability
[6] = Metabolic stability in rat liver microsomes assessed as parent compound remaining measured after 30 mins in presence of NADPH by LC-MS/MS analysis; format: ADME, Microsome; conditions: read-out: Stability
Mus musculus [7] = assay: Antifibrotic activity in CCl4-induced male C57BL/6J mouse model of liver fibrosis assessed as downregulation of Timp1 gene expression at 10 to 30 mg/kg, ip co-administered daily with CCl4 for 4 weeks by RT-PCR analysis; format: functional, organism-based; conditions: dose 10-30 mg/kg
[8] = Cytotoxicity against HFL1 cells assessed as reduction in cell viability incubated for 24 hrs by EZ-CYTOX cell viability assay; format: toxicity, cell-based; conditions: human
Mus musculus [9] = assay: Antifibrotic activity in CCl4-induced male C57BL/6J mouse model of liver fibrosis assessed as downregulation of alpha-SMA gene expression at 10 to 30 mg/kg, ip co-administered daily with CCl4 for 4 weeks by RT-PCR analysis; format: functional, organism-based; conditions: dose 10-30 mg/kg
CYP2C19 = CYP2C19 (Homo sapiens, UniProt P33261); assay: Inhibition of CYP2C19 (unknown origin) at 1 uM preincubated for 10 mins followed by NADPH addition and measured after 20 mins by luminescence based microplate reader analysis relative to control; format: ADME; conditions: time 30 min
CYP2C19, sequence (P33261 whole entry): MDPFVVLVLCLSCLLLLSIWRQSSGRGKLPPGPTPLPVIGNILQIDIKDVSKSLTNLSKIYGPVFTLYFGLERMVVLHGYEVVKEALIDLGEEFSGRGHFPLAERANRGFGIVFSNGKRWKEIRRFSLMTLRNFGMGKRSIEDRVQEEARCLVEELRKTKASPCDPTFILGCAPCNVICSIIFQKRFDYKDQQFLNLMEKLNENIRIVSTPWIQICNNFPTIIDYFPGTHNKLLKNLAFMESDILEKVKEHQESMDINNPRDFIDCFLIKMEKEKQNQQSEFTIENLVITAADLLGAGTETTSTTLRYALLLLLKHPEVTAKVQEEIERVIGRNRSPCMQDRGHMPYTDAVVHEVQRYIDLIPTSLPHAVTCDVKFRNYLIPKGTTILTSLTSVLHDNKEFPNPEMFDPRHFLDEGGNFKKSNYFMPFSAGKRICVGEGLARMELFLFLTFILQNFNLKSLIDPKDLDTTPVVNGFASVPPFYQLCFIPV

Mus musculus [10] = assay: Antifibrotic activity in CCl4-induced male C57BL/6J mouse model of liver fibrosis assessed as reduction in hydroxyproline level in liver at 10 to 30 mg/kg, ip co-administered daily with CCl4 for 4 weeks; format: functional, organism-based; conditions: dose 10-30 mg/kg
Mus musculus [11] = assay: Antifibrotic activity in CCl4-induced male C57BL/6J mouse model of liver fibrosis assessed as downregulation of Col3a1 gene expression at 10 to 30 mg/kg, ip co-administered daily with CCl4 for 4 weeks by RT-PCR analysis; format: functional, organism-based; conditions: dose 10-30 mg/kg
[12] = Drug concentration in male mouse plasma at 5 mg/kg, ip measured after 0.5 hrs by LC-MS/MS analysis; format: ADME, organism-based
Mus musculus [13] = assay: Antifibrotic activity in CCl4-induced male C57BL/6J mouse model of liver fibrosis assessed as reduction in plasma ALT level at 10 to 30 mg/kg, ip co-administered daily with CCl4 for 4 weeks by enzymatic colorimetric analysis; format: functional, organism-based; conditions: dose 10-30 mg/kg
Mus musculus [14] = assay: Antifibrotic activity in CCl4-induced male C57BL/6J mouse model of liver fibrosis assessed as reduction in fibrotic deposition in liver at 10 to 30 mg/kg, ip co-administered daily with CCl4 for 4 weeks by masson's trichrome staining based analysis; format: functional, organism-based; conditions: dose 10-30 mg/kg
[15] = Cytotoxicity against mouse L929 cells assessed as reduction in cell viability incubated for 24 hrs by EZ-CYTOX cell viability assay; format: toxicity, cell-based
[16] = Volume of distribution at steady state in male ICR mouse at 2 mg/kg, iv measured after 24 hrs by LC-MS/MS analysis; format: ADME, organism-based; conditions: in vivo, read-out: Vdss
hERG (KCNH2) = hERG (KCNH2) (Homo sapiens, UniProt Q12809); assay: Inhibition of human ERG at 10 uM incubated for 2 hrs by fluorescence polarization assay relative to control; format: toxicity
hERG (KCNH2), sequence (Q12809 whole entry): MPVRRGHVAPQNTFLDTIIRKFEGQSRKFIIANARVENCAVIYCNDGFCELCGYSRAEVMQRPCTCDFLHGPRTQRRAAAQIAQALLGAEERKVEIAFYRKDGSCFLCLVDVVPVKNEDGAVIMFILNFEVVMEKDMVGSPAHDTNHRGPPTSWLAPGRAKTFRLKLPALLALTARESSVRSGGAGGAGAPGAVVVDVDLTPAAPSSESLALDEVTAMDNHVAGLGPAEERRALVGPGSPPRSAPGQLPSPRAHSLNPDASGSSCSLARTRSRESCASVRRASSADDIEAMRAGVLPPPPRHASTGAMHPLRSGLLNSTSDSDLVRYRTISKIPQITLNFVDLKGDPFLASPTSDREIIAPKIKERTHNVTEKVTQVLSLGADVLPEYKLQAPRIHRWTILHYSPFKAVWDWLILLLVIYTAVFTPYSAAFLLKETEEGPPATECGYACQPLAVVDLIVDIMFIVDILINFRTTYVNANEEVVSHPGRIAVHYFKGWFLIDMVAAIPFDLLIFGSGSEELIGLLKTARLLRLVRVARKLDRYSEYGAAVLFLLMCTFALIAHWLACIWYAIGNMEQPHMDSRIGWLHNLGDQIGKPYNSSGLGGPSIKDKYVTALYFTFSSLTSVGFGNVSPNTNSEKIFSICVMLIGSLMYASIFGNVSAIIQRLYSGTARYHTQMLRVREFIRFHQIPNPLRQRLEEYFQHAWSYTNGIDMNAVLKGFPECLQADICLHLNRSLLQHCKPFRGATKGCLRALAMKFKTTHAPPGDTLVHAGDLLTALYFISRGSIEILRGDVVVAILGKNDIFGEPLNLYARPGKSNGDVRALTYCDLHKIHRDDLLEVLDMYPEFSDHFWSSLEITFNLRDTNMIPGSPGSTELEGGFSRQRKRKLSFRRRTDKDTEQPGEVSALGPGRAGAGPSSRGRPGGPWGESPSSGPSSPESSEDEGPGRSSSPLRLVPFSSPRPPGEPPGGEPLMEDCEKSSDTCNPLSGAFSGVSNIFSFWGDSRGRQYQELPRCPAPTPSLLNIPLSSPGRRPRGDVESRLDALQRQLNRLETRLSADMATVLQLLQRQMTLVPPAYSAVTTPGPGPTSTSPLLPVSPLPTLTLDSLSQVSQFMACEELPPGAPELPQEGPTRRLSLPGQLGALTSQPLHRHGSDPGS

[17] = Cytotoxicity against CHO-K1 cells assessed as reduction in cell viability incubated for 24 hrs by EZ-CYTOX cell viability assay; format: toxicity, cell-based, Cricetulus griseus; conditions: Chinese hamster
Mus musculus [18] = assay: Antifibrotic activity in CCl4-induced male C57BL/6J mouse model of liver fibrosis assessed as reduction in sirius red positive area in liver at 10 to 30 mg/kg, ip co-administered daily with CCl4 for 4 weeks by sirius red staining based analysis; format: functional, organism-based; conditions: dose 10-30 mg/kg
CYP3A4 = CYP3A4 (Homo sapiens, UniProt P08684); assay: Inhibition of CYP3A4 (unknown origin) at 1 uM preincubated for 10 mins followed by NADPH addition and measured after 20 mins by luminescence based microplate reader analysis relative to control; format: ADME; conditions: time 30 min
CYP3A4, sequence (P08684 whole entry): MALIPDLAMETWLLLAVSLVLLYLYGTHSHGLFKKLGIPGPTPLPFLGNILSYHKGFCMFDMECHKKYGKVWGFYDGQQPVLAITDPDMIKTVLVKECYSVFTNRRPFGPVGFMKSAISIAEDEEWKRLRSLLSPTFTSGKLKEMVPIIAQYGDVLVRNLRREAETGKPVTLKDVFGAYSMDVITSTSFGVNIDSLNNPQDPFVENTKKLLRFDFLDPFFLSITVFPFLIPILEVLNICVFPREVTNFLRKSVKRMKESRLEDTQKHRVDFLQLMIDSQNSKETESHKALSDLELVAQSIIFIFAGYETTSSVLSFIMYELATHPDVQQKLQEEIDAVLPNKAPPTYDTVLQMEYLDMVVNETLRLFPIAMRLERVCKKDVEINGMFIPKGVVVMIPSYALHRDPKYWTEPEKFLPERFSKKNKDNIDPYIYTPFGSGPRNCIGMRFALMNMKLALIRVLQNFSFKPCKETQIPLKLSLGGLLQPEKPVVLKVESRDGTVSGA

Mus musculus [19] = assay: Antifibrotic activity in CCl4-induced male C57BL/6J mouse model of liver fibrosis assessed as reduction in plasma total bilirubin level at 10 to 30 mg/kg, ip co-administered daily with CCl4 for 4 weeks by enzymatic colorimetric analysis; format: functional, organism-based; conditions: dose 10-30 mg/kg
[20] = Half-life in male ICR mouse at 2 mg/kg, iv measured after 24 hrs by LC-MS/MS analysis; format: ADME, organism-based; conditions: in vivo
[21] = AUC (0 to t) in male ICR mouse at 2 mg/kg, iv measured after 24 hrs by LC-MS/MS analysis; format: ADME, organism-based; conditions: in vivo
[22] = Toxicity in CCl4-induced male C57BL/6J mouse model of liver fibrosis assessed as effect on liver gross morphology at 10 to 30 mg/kg, ip co-administered daily with CCl4 for 4 weeks; format: organism-based; conditions: in vivo, 672 h, dose 10-30 mg/kg
CYP2C9 = CYP2C9 (Homo sapiens, UniProt P11712); assay: Inhibition of CYP2C9 (unknown origin) at 1 uM preincubated for 10 mins followed by NADPH addition and measured after 20 mins by luminescence based microplate reader analysis relative to control; format: ADME; conditions: time 30 min
CYP2C9, sequence (P11712 whole entry): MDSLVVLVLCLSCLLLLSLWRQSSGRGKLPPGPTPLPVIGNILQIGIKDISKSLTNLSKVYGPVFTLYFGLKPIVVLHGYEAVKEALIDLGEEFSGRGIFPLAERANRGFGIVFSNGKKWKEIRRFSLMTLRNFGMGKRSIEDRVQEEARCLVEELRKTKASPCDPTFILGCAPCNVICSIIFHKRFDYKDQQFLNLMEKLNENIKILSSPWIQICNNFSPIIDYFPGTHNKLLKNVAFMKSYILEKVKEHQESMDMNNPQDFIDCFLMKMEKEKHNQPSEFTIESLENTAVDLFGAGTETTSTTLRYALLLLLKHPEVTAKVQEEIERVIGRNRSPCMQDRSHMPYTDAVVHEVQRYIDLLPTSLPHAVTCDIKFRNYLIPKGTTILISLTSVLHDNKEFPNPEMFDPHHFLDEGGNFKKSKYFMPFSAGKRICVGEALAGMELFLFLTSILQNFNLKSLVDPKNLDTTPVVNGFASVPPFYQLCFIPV

[23] = target: 5-hydroxytryptamine receptor 2A (Homo sapiens) (UniProt P28223); assay: Inhibition of 5-HT2A (unknown origin) at 1 uM relative to control
5-hydroxytryptamine receptor 2A (Homo sapiens), sequence (P28223 whole entry): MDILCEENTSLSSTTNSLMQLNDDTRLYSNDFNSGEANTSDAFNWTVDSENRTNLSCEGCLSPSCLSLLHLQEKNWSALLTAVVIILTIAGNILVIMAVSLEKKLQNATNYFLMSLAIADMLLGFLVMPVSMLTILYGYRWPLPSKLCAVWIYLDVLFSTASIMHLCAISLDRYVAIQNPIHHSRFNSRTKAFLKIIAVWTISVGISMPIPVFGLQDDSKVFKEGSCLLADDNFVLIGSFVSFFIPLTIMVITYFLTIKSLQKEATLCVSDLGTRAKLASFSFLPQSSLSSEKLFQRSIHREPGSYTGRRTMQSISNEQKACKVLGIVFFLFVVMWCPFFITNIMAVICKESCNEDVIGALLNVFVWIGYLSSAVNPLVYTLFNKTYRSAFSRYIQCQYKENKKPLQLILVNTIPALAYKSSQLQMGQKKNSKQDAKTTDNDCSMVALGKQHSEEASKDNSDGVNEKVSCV

Mus musculus [24] = assay: Antifibrotic activity in CCl4-induced male C57BL/6J mouse model of liver fibrosis assessed as reduction in fibrotic deposition in liver at 10 to 30 mg/kg, ip co-administered daily with CCl4 for 4 weeks by H and E staining based analysis; format: functional, organism-based; conditions: dose 10-30 mg/kg
Mus musculus [25] = assay: Antifibrotic activity in CCl4-induced male C57BL/6J mouse model of liver fibrosis assessed as downregulation of Col1a1 gene expression at 10 to 30 mg/kg, ip co-administered daily with CCl4 for 4 weeks by RT-PCR analysis; format: functional, organism-based; conditions: dose 10-30 mg/kg
[26] = Cytotoxicity against African green monkey Vero cells assessed as reduction in cell viability incubated for 24 hrs by EZ-CYTOX cell viability assay; format: toxicity, cell-based, Chlorocebus sabaeus
[27] = Clearance in male ICR mouse at 2 mg/kg, iv measured after 24 hrs by LC-MS/MS analysis; format: ADME, organism-based; conditions: in vivo
Mus musculus [28] = assay: Antifibrotic activity in CCl4-induced male C57BL/6J mouse model of liver fibrosis assessed as reduction in plasma AST level at 10 to 30 mg/kg, ip co-administered daily with CCl4 for 4 weeks by enzymatic colorimetric analysis; format: functional, organism-based; conditions: dose 10-30 mg/kg
[29] = Metabolic stability in mouse liver microsomes assessed as parent compound remaining measured after 30 mins in presence of NADPH by LC-MS/MS analysis; format: ADME, Microsome; conditions: read-out: Stability
Mus musculus [30] = assay: Antifibrotic activity in CCl4-induced male C57BL/6J mouse model of liver fibrosis assessed as reduction in fibrotic deposition in liver at 10 to 30 mg/kg, ip co-administered daily with CCl4 for 4 weeks by sirius red staining based analysis; format: functional, organism-based; conditions: dose 10-30 mg/kg
CYP2D6 = CYP2D6 (Homo sapiens, UniProt P10635); assay: Inhibition of CYP2D6 (unknown origin) at 1 uM preincubated for 10 mins followed by NADPH addition and measured after 20 mins by luminescence based microplate reader analysis relative to control; format: ADME; conditions: time 30 min
CYP2D6, sequence (P10635 whole entry): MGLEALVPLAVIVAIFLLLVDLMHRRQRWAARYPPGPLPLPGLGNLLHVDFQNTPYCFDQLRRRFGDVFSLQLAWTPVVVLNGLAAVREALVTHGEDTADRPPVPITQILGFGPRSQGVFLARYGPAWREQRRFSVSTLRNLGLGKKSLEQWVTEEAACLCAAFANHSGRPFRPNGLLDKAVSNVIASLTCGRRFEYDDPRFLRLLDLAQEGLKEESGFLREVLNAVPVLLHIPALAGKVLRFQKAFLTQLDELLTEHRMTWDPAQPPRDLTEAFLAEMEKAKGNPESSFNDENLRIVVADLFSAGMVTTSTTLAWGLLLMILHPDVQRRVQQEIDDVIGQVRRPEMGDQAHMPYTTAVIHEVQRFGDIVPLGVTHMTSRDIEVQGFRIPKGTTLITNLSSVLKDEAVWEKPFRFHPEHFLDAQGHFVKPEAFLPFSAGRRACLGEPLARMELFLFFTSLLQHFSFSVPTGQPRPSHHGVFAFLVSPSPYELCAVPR

Mus musculus [31] = assay: Antifibrotic activity in CCl4-induced male C57BL/6J mouse model of liver fibrosis assessed as reduction in fibrosis be measuring fibrotic stage at 10 to 30 mg/kg, ip co-administered daily with CCl4 for 4 weeks; format: functional, organism-based; conditions: dose 10-30 mg/kg
[32] = Drug concentration in male mouse brain at 5 mg/kg, ip measured after 0.5 hrs by LC-MS/MS analysis; format: ADME, organism-based; conditions: read-out: Ct
CYP1A2 = target: T2, CYP1A2 (Homo sapiens, UniProt P05177); assay: Inhibition of CYP1A2 (unknown origin) at 1 uM preincubated for 10 mins followed by NADPH addition and measured after 20 mins by luminescence based microplate reader analysis relative to control; format: ADME; conditions: time 30 min
T2 sequence (P05177 whole entry): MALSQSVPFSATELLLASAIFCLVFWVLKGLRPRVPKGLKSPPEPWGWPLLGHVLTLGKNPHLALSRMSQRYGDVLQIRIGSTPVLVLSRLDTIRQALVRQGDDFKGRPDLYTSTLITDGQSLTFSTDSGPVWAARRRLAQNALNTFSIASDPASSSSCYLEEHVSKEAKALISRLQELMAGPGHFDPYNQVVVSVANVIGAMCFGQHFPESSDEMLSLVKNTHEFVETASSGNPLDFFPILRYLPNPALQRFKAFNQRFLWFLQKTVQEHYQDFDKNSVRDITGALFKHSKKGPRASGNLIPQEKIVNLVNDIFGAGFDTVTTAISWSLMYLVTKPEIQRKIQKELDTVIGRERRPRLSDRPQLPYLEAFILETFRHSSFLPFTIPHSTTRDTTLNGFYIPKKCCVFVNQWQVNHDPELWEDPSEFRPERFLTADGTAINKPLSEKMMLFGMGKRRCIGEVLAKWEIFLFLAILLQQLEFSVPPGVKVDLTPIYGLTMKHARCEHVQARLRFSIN

[33] = Ratio of drug concentration in male mouse brain to plasma at 5 mg/kg, ip measured after 0.5 hrs; format: ADME, organism-based; conditions: brain and plasma, read-out: BPR
[34] = Drug concentration in male mouse brain at 5 mg/kg, ip measured after 0.5 hrs; format: ADME, organism-based; conditions: read-out: Ct
[35] = Drug concentration in male mouse plasma at 5 mg/kg, ip measured after 0.5 hrs; format: ADME, organism-based

COc1ccc(S(=O)(=O)N[C@H]2CCOC2)cc1C(=O)Nc1ccccc1N1CCNCC1
inhibition [1]: 15%

COc1ccc(S(=O)(=O)N[C@@H]2CCN(C(=O)OC(C)(C)C)C2)cc1C(=O)Nc1ccccc1Cl
inhibition ([1]; filed as antagonist): 99%

C[C@@H]1CN(C(=N)NCc2ccccc2)N=C1c1cccc(Cl)c1O
IC50 [2]: < 1 nM

COc1ccc(S(=O)(=O)N[C@H]2CCOC2)cc1C(=O)Nc1ccccc1NC(=O)OC(C)(C)C
inhibition [1]: 20.1%

COc1ccc(S(=O)(=O)N[C@@H]2CCNC2)cc1C(=O)Nc1ccccc1Cl
inhibition ([1]; filed as antagonist): 97.8%

COc1ccc(S(=O)(=O)N[C@H]2CCN(C(=O)[C@@H](N)CCC(=O)O)C2)cc1C(=O)Nc1ccccc1Cl
inhibition ([1]; filed as antagonist): 94.5% | IC50 [3]: 7.22 nM

COc1ccc(S(=O)(=O)N[C@H]2CCN(C(=O)CC[C@H](N)C(=O)O)C2)cc1C(=O)Nc1ccccc1Cl.Cl
IC50 at 24 h [4]: > 100000 nM | remaining at 0.5 h [5]: 97.6% | remaining at 0.5 h [6]: 94.7% | Activity (Mus musculus [7]): Active | IC50 at 24 h [8]: > 100000 nM | Activity (Mus musculus [9]): Active | inhibition at 20 min, 1 µM (CYP2C19): 17.6% | Activity (Mus musculus [10]): Active | Activity (Mus musculus [11]): Active | concentration at 0.5 h [12]: 440 ng/mL | Activity (Mus musculus [13]): Active | Activity (Mus musculus [14]): Active | IC50 at 24 h [15]: > 100000 nM | Vd [16]: 1.93 L/kg | inhibition at 2 h, 10 µM (hERG (KCNH2)): 18.6% | IC50 at 24 h [17]: > 100000 nM | Activity (Mus musculus [18]): Active | inhibition at 20 min, 1 µM (CYP3A4): 33.8% | Activity (Mus musculus [19]): Active | half-life [20]: 1.02 h | AUC(0-t) at 24 h [21]: 810 ng·h/mL | Activity [22]: Non-toxic | inhibition ([1]; filed as antagonist): 102% | inhibition at 20 min, 1 µM (CYP2C9): < 1% | inhibition [23]: -9.88% | Activity (Mus musculus [24]): Active | Activity (Mus musculus [25]): Active | IC50 at 24 h [26]: > 100000 nM | clearance [27]: 34.5 mL/min/kg | Activity (Mus musculus [28]): Active | remaining at 0.5 h [29]: 91.6% | Activity (Mus musculus [30]): Active | inhibition at 20 min, 1 µM (CYP2D6): < 1% | Activity (Mus musculus [31]): Active | IC50 [3]: 1.09 nM | concentration at 0.5 h [32]: < 31.3 ng/g | inhibition at 20 min, 1 µM (CYP1A2): < 1%

COc1ccc(S(=O)(=O)N[C@H]2CCN(C(=O)C[C@H](N)C(=O)O)C2)cc1C(=O)Nc1ccccc1Cl
inhibition ([1]; filed as antagonist): 103% | IC50 [3]: 10 nM

COc1ccc(S(=O)(=O)N[C@H]2CCOC2)cc1C(=O)Nc1ccccc1Cl
Kp at 0.5 h [33]: 0.53 | inhibition ([1]; filed as antagonist): 98.8% | concentration at 0.5 h [34]: 51.7 ng/g | concentration at 0.5 h [35]: 99.2 ng/mL | IC50 [3]: 1.8 nM
